Data as given in article PMC10335629 (Journal of the American Chemical Society, 2023).
Read-outs that look alike come from different tables or passages of the source. Blank lines part the entries; values can stand above or below the substance they belong to. No end group written: not given here.

Columns and labels:
nLuc-GLP-2R [1] = target: nLuc-GLP-2R (UniProt O95838)
nLuc-GLP-2R [2] = target: nLuc-GLP-2R (UniProt O95838); assay: FRET or BRET
GLP-2R = target: T1, GLP-2R (Homo sapiens, UniProt O95838); assay: GLP-2R activation: cAMP production, GloSensor HEK293 cells
T1 sequence (O95838 1-553): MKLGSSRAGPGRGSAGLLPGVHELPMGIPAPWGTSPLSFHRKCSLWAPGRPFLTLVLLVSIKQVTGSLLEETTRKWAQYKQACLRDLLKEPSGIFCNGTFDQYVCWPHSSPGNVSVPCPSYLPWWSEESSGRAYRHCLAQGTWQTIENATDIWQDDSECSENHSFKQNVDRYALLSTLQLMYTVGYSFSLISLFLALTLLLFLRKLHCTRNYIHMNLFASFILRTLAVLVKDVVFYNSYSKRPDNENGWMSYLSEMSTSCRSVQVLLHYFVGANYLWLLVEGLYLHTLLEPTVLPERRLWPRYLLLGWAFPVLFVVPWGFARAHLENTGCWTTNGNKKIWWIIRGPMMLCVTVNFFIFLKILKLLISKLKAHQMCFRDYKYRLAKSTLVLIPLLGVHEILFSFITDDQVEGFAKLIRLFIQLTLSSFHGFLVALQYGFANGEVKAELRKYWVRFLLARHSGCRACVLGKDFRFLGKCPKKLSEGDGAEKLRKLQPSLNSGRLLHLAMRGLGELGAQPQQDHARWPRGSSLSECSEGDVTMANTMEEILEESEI

GLP-1R = GLP-1R (Homo sapiens, UniProt P43220); assay: GLP-1R activation: cAMP production, GloSensor HEK293 cells; format: cell-based
nLuc-GLP-2R [3] = target: T2, nLuc-GLP-2R (Homo sapiens, UniProt O95838); assay: nLuc-GLP-2R competition binding
T2 sequence (O95838 1-553): T1 sequence (O95838 1-553)

nLuc-GLP-1R = nLuc-GLP-1R (Homo sapiens, UniProt P43220); assay: nLuc-GLP-1R competition binding
nLuc-GLP-2R [4] = target: nLuc-GLP-2R (UniProt O95838); remark: listed apart in the source

Sequence of GLP-1R (P43220 24-463): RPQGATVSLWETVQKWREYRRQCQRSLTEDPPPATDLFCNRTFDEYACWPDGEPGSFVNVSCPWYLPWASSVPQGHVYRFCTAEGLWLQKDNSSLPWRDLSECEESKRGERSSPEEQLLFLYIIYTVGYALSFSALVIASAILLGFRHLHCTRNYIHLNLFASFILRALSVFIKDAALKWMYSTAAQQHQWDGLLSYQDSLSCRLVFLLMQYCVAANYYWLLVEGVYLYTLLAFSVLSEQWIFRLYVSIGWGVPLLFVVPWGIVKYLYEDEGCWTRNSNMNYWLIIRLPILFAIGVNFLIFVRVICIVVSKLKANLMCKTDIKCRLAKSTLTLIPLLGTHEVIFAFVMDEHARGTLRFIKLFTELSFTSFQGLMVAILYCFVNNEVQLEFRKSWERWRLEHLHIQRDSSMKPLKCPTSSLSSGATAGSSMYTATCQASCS
Sequence of nLuc-GLP-1R (P43220 24-463): as above

Substance: GLP-2 (peptide)
- GLP-2R cAMP Production, % Max (normalized to GLP-2) (nLuc-GLP-2R [1]): 99%
- GLP-2R cAMP Production, EC50 (native GLP-2R) (nLuc-GLP-2R [1]): 0.086 nM
- IC50 (nLuc-GLP-2R [2]): 25 nM

Substance: GLP-2-NH2: C-terminal amide analogue of the hormone GLP-2
- effect of altering the C-terminus to a primary amide on GLP-2R activation (GLP-2R; natural sequence, compared with GLP-2, Figure S1): no effect on GLP-2R activation

Substance: HGEGTFSSELATILDALAARDFIAWLIATKITDKKKKKK-NH2 [GLE, glepaglutide]
- IC50 (nLuc-GLP-1R): 290 nM
- EC50 (GLP-1R): 5.1 nM
- IC50 (nLuc-GLP-2R [3]): 170 nM
- EC50 (GLP-2R): 0.44 nM

Other lines, results leading:

- GLP-1R cAMP Production % Max (GLP-1R; maximal response normalized relative to GLE, ≥4 independent experiments, ± S.E.M., NR = No Response): 95 ± 2%
- lower affinity for nLuc-GLP-2R relative to GLP-2 (nLuc-GLP-2R [3]; competition BRET, Figure S2): ~ 10 fold
- Emax (GLP-2R; HEK293, read-out: GLP-2R cAMP Production % Max): 98 ± 1%
Substance: HGEGTFSSELATILDALAARDFIAWLIATKITDKKKKKK-NH2 (C-terminus assumed) [GLE, glepaglutide]

- GLP-2R cAMP Production, EC50 (native GLP-2R) (nLuc-GLP-2R [4]): 0.44 nM
Substance: glepaglutide (GLE) (peptide)
